# Assay results as given in article PMC5071162 (ACS chemical neuroscience, 2016).
# Like-named read-outs stand apart in the source and are kept apart here.
# Biological target: human GPR88 (Homo sapiens, UniProt Q9GZN0)
# Assay: Lance cAMP assay using stable PPLS-HA-GPR88 CHO cells
# Format: cell-based
# Details: for agonist activity in words: qualitative SAR statement, Lance cAMP assay
# Sequence of human GPR88 (Q9GZN0 whole entry): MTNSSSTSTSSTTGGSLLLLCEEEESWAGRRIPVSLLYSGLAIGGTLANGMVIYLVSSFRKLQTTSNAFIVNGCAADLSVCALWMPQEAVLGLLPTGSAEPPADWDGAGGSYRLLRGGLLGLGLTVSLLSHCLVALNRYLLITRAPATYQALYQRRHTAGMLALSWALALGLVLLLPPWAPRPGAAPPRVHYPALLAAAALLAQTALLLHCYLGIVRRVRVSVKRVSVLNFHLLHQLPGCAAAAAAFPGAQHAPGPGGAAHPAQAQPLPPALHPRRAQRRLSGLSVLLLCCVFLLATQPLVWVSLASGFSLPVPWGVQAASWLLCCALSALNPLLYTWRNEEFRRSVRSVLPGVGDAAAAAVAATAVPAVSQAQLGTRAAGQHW
Structure (SMILES),EC50 (EC50) [nM],other results
"CC[C@H](C)[C@H](N)CN(C(=O)[C@@H]1C[C@H]1c1ccccn1)c1ccc(-c2ccc(C(C)C)cc2)cc1 (relative stereo) [5d, (1R*,2R*)-2-(Pyridin-2-yl)cyclopropanecarboxylic Acid [(2S,3S)-2-Amino-3-methylpentyl]-(4′-isopropylbiphenyl-4-yl)amide]",260,–
"CC[C@H](C)[C@H](N)CN(C(=O)[C@@H]1C[C@H]1c1ccccn1)c1ccc(-c2ccc(C(=O)N(C)C)cc2)cc1 (relative stereo) [5aa, (1R*,2R*)-2-(Pyridin-2-yl)cyclopropanecarboxylic Acid [(2S,3S)-2-Amino-3-methylpentyl]-[4′-(dimethylcarbamoyl)biphenyl-4-yl]-amide]",3320,agonist activity in words: least activity in the series
"CCCCCCc1ccc(-c2ccc(N(C[C@@H](N)[C@@H](C)CC)C(=O)[C@@H]3C[C@H]3c3ccccn3)cc2)cc1 (relative stereo) [5g, (1R*,2R*)-2-(Pyridin-2-yl)cyclopropanecarboxylic Acid [(2S,3S)-2-Amino-3-methylpentyl]-(4′-hexylbiphenyl-4-yl)amide]",136,–
"CCc1ccc(-c2ccc(N(C[C@@H](N)[C@@H](C)CC)C(=O)[C@@H]3C[C@H]3c3ccccn3)cc2)cc1 (relative stereo) [5c, (1R*,2R*)-2-(Pyridin-2-yl)cyclopropanecarboxylic Acid [(2S,3S)-2-Amino-3-methylpentyl]-(4′-ethylbiphenyl-4-yl)amide]",85,EC50 (EC50 (nM)): 85 nM
"CC[C@H](C)[C@H](N)CN(C(=O)[C@@H]1C[C@H]1c1ccccn1)c1ccc(-c2ccc(O)cc2)cc1 (relative stereo) [5v, (1R*,2R*)-2-(Pyridin-2-yl)cyclopropanecarboxylic Acid [(2S,3S)-2-Amino-3-methylpentyl]-(4′-hydroxybiphenyl-4-yl)amide]",2860,agonist activity in words: significant decrease in activity
"CC[C@H](C)[C@H](N)CN(C(=O)[C@@H]1C[C@H]1c1ccccn1)c1ccc(-c2ccc(C(C)=O)cc2)cc1 (relative stereo) [5t, (1R*,2R*)-2-(Pyridin-2-yl)cyclopropanecarboxylic Acid [(2S,3S)-2-Amino-3-methylpentyl]-(4′-acetylbiphenyl-4-yl)amide]",351,–
"CC[C@H](C)[C@H](N)CN(C(=O)[C@@H]1C[C@H]1c1ccccn1)c1ccc(-c2ccc(C#N)cc2)cc1 (relative stereo) [5r, (1R*,2R*)-2-(Pyridin-2-yl)cyclopropanecarboxylic Acid [(2S,3S)-2-Amino-3-methylpentyl]-(4′-cyanobiphenyl-4-yl)amide]",197,–
"CC[C@H](C)[C@H](N)CN(C(=O)[C@@H]1C[C@H]1c1ccccn1)c1ccc(-c2ccc(OC(F)(F)F)cc2)cc1 (relative stereo) [5k, (1R*,2R*)-2-(Pyridin-2-yl)cyclopropanecarboxylic Acid [(2S,3S)-2-Amino-3-methylpentyl]-(4′-trifluoromethoxybiphenyl-4-yl)amide]",139,–
"CC[C@H](C)[C@H](N)CN(C(=O)[C@@H]1C[C@H]1c1ccccn1)c1ccc(-c2ccc(OC(C)C)cc2)cc1 (relative stereo) [5m, (1R*,2R*)-2-(Pyridin-2-yl)cyclopropanecarboxylic Acid [(2S,3S)-2-Amino-3-methylpentyl]-(4′-isopropoxybiphenyl-4-yl)amide]",–,EC50: 77 nM
"CC[C@H](C)[C@H](N)CN(C(=O)[C@@H]1C[C@H]1c1ccccn1)c1ccc(-c2ccc(C(F)(F)F)cc2)cc1 (relative stereo) [5b, (1R*,2R*)-2-(Pyridin-2-yl)cyclopropanecarboxylic Acid [(2S,3S)-2-Amino-3-methylpentyl]-(4′-trifluoromethylbiphenyl-4-yl)amide]",187,–
"CC[C@H](C)[C@H](N)CN(C(=O)[C@@H]1C[C@H]1c1ccccn1)c1ccc(-c2ccc(-c3ccccc3)cc2)cc1 (relative stereo) [5i, (1R*,2R*)-2-(Pyridin-2-yl)cyclopropanecarboxylic Acid [(2S,3S)-2-Amino-3-methylpentyl]-(4′-phenylbiphenyl-4-yl)amide]",289,–
